Test results published in US4481139A, “Peptide antagonists of substance P” (Board of Regents, The University of Texas System, priority 1983, dated 1984).
Values joined by “and” are separate entries in the source; they are usually repeats but may differ in a detail not shown here. Identical values can stand only once. Non-standard residues stand in square brackets, D forms with d. Residues, ends and D or L forms follow the SMILES beside them. pGlu = O=C1CC[C@@H](C(=O)O)N1

Tests used:
[1] = test system: terminal portion of the guinea pig ileum; test: Antagonistic activity against substance P on the terminal portion of the guinea pig ileum; format: cell-based; conditions: analog at 10^-4 (concentration unit not given)
Protocol: The antagonistic activities of the analogs were evaluated using the terminal portion of the guinea pig ileum, as described by Yamaguchi et al. [Acta Chem. Scand. B33, 63 (1979)]. The biological assay data are in Table IV.
The sequence of substance P (SP) is expressed in the top of Table IV. The antagonistic activity is defined as the fold-increase in the concentration of SP in the presence of the analog to give 50% of the maximal response which is elicited by SP alone. The sequences of the analogs which were designed and synthesized are in Table IV. The eleven amino acids of SP are spaced across the top line to facilitate visual comparison of the amino acids in SP with those in the analogs. For example, analog I is also spaced across the page to show the sequence relationship to SP. On this basis, analog I is H-Arg^1,Pro^2,Lys^3,Pro^4,D-Phe^5,Gln^6,D-Trp^7,Phe^8 D-Trp^9,Leu^10,Leu^11 -NH2, but on the basis of conventional peptide nomenclature, analog I is expressed as [D-Phe^5,D-Trp^7,D-Trp^9,Leu^11 ]-SP5-11.

[2] = SP = 1; cited from earlier work
[3] = Solubility in 50% ethanol (footnote to Table IV); format: physicochemical

Row | Compound | Fold increase in conc. of SP in the presence of the analog to give 50% of the maximal response elicited by SP alone [1] | Relative activity in comparison with SP as 1 [2] | Solubility [3]
1 | CC(C)C[C@H](NC(=O)[C@@H](Cc1c[nH]c2ccccc12)NC(=O)[C@H](Cc1ccccc1)NC(=O)[C@@H](Cc1c[nH]c2ccccc12)NC(=O)[C@H](CCC(N)=O)NC(=O)[C@@H]1CCC(=O)N1)C(=O)N[C@H](C(N)=O)[C@@H](C)O [Analog III, [Glp^5,D-Trp^7,D-Trp^9,Thr^11]--SP5-11] ([pGlu]Q[dW]F[dW]LT-NH2) | 2 fold | – | –
2 | CC(C)C[C@H](NC(=O)[C@H](CC(C)C)NC(=O)[C@@H](Cc1c[nH]c2ccccc12)NC(=O)[C@H](Cc1ccccc1)NC(=O)[C@@H](Cc1c[nH]c2ccccc12)NC(=O)[C@H](CCC(N)=O)NC(=O)[C@@H]1CCC(=O)N1)C(N)=O [Analog V, [Glp^5,D-Trp^7,D-Trp^9,Leu^11]--SP5-11] ([pGlu]Q[dW]F[dW]LL-NH2) | 17 fold | – | –
3 | Glp-Gln-Phe-Phe-Gly-Leu-Met-NH2 ([pGlu]QFFGLM-NH2; SMILES CSCC[C@H](NC(=O)[C@H](CC(C)C)NC(=O)CNC(=O)[C@H](Cc1ccccc1)NC(=O)[C@H](Cc1ccccc1)NC(=O)[C@H](CCC(N)=O)NC(=O)[C@@H]1CCC(=O)N1)C(N)=O) [truncated heptapeptide analog of SP from Yanaihara et al] | – | 1.7 | –
4 | [D-Phe^5,D-Trp^7,D-Trp^9,Leu^11 ]-SP5-11 [Analog I] | > 200 fold and 200 fold | – | difficulty soluble in 50% ethanol
